From ChEMBL document CHEMBL5226278, “Pharmacological approaches for targeting cystic fibrosis nonsense mutations” (2020)

Assay: Restoration of CFTR chloride channel activity in human HBE cells expressing wild type CFTR assessed as increase in channel function
Format: functional

C[C@H](N)[C@H]1O[C@@H](O[C@@H]2[C@@H](O)[C@H](N)C[C@H](N)[C@H]2O[C@H]2O[C@H]([C@@H](C)O)[C@@H](O)[C@H](O)[C@H]2N)[C@H](O)[C@@H]1O
Activity: 7%
